According to patent US20250345391A1, “COMPOSITIONS AND METHODS FOR THE TREATMENT OF SEPSIS” (Children's Hospital Medical Center, priority 2022, published 2025):

Experiments:
Assay type in all cases: in vivo, Male C57BL/6 mice
[1] = test system: lung sections; test: Lung histopathology after CLP sepsis; conditions: 6 h after CLP; colivelin 100 or 200 μg/kg i.p. at 1 h after CLP; vs vehicle
Source text: The investigation conformed to the National Institutes of Health Guide for the Care and Use of Laboratory Animals (Eighth Edition, 2011) and was approved by the Institutional Animal Care and Use Committee of the Cincinnati Children's Hospital Medical Center. Male C57BL/6 mice were obtained from Charles River Laboratories International, Inc. (Wilmington, MA). Mice were used at 3-5 months of age to mimic the equivalent for human ranges from 20-25 years (29). Male mice only were chosen for the experimentation to avoid interference from female hormonal fluctuations in sepsis responses during the estrous cycle. Mice were housed in pathogen-free conditions under a 10-h light/14-h dark cycle with free access to food and water. Mice were anesthetized with 2.0% isoflurane in 50% oxygen and polymicrobial sepsis was induced by cecal ligation and puncture (CLP) (30). […]
Paraffin-embedded sections of thoracic aortas and lungs were stained with hematoxylin and eosin for morphological evaluation by three independent observers blinded to the treatment groups. Lung injury was also analyzed by a semiquantitative score based on the following histologic features: alveolar capillary congestion, infiltration of red blood cells and inflammatory cells into the airspace, alveolar wall thickness, and hyaline membrane formation (34). […]

[2] = test system: STAT3; test: Western blot of STAT3 and phosphorylated forms in lung after CLP; conditions: 6 h after CLP; colivelin 100 μg/kg i.p. at 1 h after CLP; vs vehicle
Source text: (§1) The investigation conformed to the National Institutes of Health Guide for the Care and Use of Laboratory Animals (Eighth Edition, 2011) and was approved by the Institutional Animal Care and Use Committee of the Cincinnati Children's Hospital Medical Center. Male C57BL/6 mice were obtained from Charles River Laboratories International, Inc. (Wilmington, MA). Mice were used at 3-5 months of age to mimic the equivalent for human ranges from 20-25 years (29). Male mice only were chosen for the experimentation to avoid interference from female hormonal fluctuations in sepsis responses during the estrous cycle. Mice were housed in pathogen-free conditions under a 10-h light/14-h dark cycle with free access to food and water. Mice were anesthetized with 2.0% isoflurane in 50% oxygen and polymicrobial sepsis was induced by cecal ligation and puncture (CLP) (30). After a midline laparotomy, the cecum was exteriorized, ligated and punctured twice with a 23-G needle. The cecum was then returned into the peritoneal cavity and the abdominal incision was closed. After the procedure, mice were randomly assigned to three treatment groups: a vehicle-treated group received distilled water (200 μl/mouse) intraperitoneally (i.p.); a 100 μg colivelin-treated group received the colivelin at 100 μg/kg i.p., and a 200 μg colivelin-treated group received the colivelin at 200 μg/kg i.p. at 1 h after CLP. The intraperitoneal injection was chosen to allow for a rapid uptake and bioavailability of the peptide. All groups of mice also received fluid resuscitation (35 ml/kg normal saline solution subcutaneously) immediately after, at 3 h and 12 h after the CLP procedure. To minimize pain at the surgical incision site, lidocaine hydrochloride (1%, 4 mg/kg total dose) was applied locally immediately after the procedure. […] Mice were then sacrificed at 0, 6 and 18 h after CLP. Blood, lungs, kidneys, liver, and thoracic aortas were collected for biochemical assays.
Subcellular fractionation was performed using a centrifugation model. […] The Bradford protein assay was then used for quantitative determination of total proteins.
Cytosol content of total AMPKα1/α2 and its phosphorylated form pAMPKα1/α2 (Santa Cruz Biotechnology, Dallas, TX, USA), cytosol and nuclear content of STAT3 and its phosphorylated forms pSTAT3(Tyr705) and pSTAT3(Ser727) (Cell Signaling Technology, Danvers, MA, USA) were determined by immunoblot analyses; β-actin was concomitantly probed with mouse anti-β-actin (Santa Cruz Biotechnology) as a loading control for both cytosol and nuclear proteins. […] The immunoreaction was detected by near-infrared fluorescence. […]

[3] = test system: polymicrobial sepsis by cecal ligation and puncture (CLP); test: Long-term studies of severity of sepsis (survival, severity score, body weight) up to 7 days after CLP
Source text: as §1
In a separate study, another cohort of mice was subjected to the CLP procedure and was used for assessing health and moribundity conditions, and survival rate up to 7 days. Mice were divided into two treatment groups in a blind and random fashion: a vehicle-treated group received distilled water (200 μl/mouse), and a colivelin-treated group received colivelin (100 μg/kg subcutaneously) at 1 h, 3 h and 24 h after the CLP procedure. Twelve animals were included for each group. One animal was sacrificed because of unintentional extensive damage in the small intestine during surgical procedure and was excluded from the study. The subcutaneous injection was chosen to avoid further stress in the peritoneum since the animals also received intraperitoneal treatment of antibiotics. To mimic the clinical management of antimicrobial coverage, all mice received ceftriaxone (25 mg/kg) and metronidazole (12.5 mg/kg) intraperitoneally every 12 h after CLP for three days. To minimize pain, buprenorphine (0.05 mg/kg) was administered subcutaneously at 1 h after surgery and every 12 h for three days after surgery. All groups of mice also received fluid resuscitation (35 ml/kg normal saline with 5% dextrose subcutaneously) every 24 h for all the duration of the experimental period. Although some spontaneous death occurred given the acute severity of the disease, spontaneous death was not considered as endpoint for this study for ethical reasons. […]

Colivelin (SALLRSIPAPAGASRLLLLTGEIDLP)
Microscopic examination of hematoxylin and eosin-stained lung sections [1]: reduced infiltration of inflammatory cells and ameliorated alveolar damage | Cytosolic expression of pSTAT3(Ser727), lung [2]: significantly reduced | Cytosolic expression of pSTAT3(Tyr705), lung [2]: significantly reduced | Nuclear expression of pSTAT3(Ser727), lung [2]: lower than vehicle-treated mice, but not statistically significant | Nuclear expression of pSTAT3(Tyr705), lung [2]: lower than vehicle-treated mice, but not statistically significant | Health of survivor mice (severity score) at 6 and 7 days ([3]; 6 and 7 days after CLP, survivor mice, colivelin 100 μg/kg s.c., vs survivor vehicle-treated mice): significantly healthier | Mice survived at 7 days ([3]; 7 days after CLP, colivelin 100 μg/kg s.c. at 1 h, 3 h and 24 h, with antibiotics and fluids, vehicle 6 out of 12): 8 out of 11 | Survival rate ([3]; 7 days after CLP, colivelin 100 μg/kg s.c. at 1 h, 3 h and 24 h, with antibiotics and fluids, vehicle 50%, not significant): 72.6% | Body weight, later time points ([3]; later than two days, up to 7 days after CLP, colivelin 100 μg/kg s.c., vs vehicle): vehicle-treated mice maintained a significant lower weight than colivelin-treated mice | Severity of signs of sepsis (severity score), all the observation period ([3]; up to 7 days after CLP, colivelin 100 μg/kg s.c. at 1 h, 3 h and 24 h, with antibiotics and fluids, vs vehicle): less severe signs of sepsis
